{
  "source": "PubChem BioAssay AID2060903",
  "about": "(Molecular Pharmacology Branch, DTP, NCI, 2025);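 note: spheroids exposed to compounds for seven days before readout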",
  "system": "377384-186-R-J1-PDC complex spheroid viability",
  "assay": "Anticancer human tumor 377384-186-R-J1-PDC patient-derived pancreatic carcinoma cell line growth inhibition [RAS]",
  "settings": "for IC50: curve of first compound; for viability, T/C: stronger effect = lower value",
  "summary_of_the_method": "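Tumour cells grown as complex spheroids with HUVEC endothelial cells and mesenchymal stem cells, treated with RAS pathway inhibitor combinations. Each agent spans half-log steps from near clinical Cmax, or 10 microM where Cmax is unknown.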",
  "data": [
    {"smiles": "Cc1nc(N2CCC3(CC2)COC(C)C3N)c(CO)nc1Sc1ccnc(N)c1Cl", "note": "(centres undefined) + C#Cc1c(F)ccc2cc(O)cc(-c3ncc4c(N5CC6CCC(C5)N6)nc(OCC56CCCN5CC(F)C6)nc4c3F)c12", "values": [
      {"measurement": "IC50", "setting": "second compound 0.0316 µM", "result": "< 0.0316", "unit": "µM"},
      {"measurement": "IC50", "setting": "second compound 0.1 µM", "result": "< 0.0316", "unit": "µM"},
      {"measurement": "IC50", "setting": "second compound 0.316 µM", "result": "< 0.0316", "unit": "µM"},
      {"measurement": "IC50", "setting": "second compound 1 µM", "result": "< 0.0316", "unit": "µM"},
      {"measurement": "IC50", "setting": "second compound 3.16 µM", "result": "< 0.0316", "unit": "µM"},
      {"measurement": "IC50", "setting": "second compound 10 µM", "result": "< 0.0316", "unit": "µM"},
      {"measurement": "viability, T/C", "setting": "second compound 0.0316 µM, first compound 0.0316 µM", "result": 12.6, "unit": "%"},
      {"measurement": "viability, T/C", "setting": "second compound 0.0316 µM, first compound 0.1 µM", "result": 5.6, "unit": "%"},
      {"measurement": "viability, T/C", "setting": "second compound 0.0316 µM, first compound 0.316 µM", "result": 3.15, "unit": "%"},
      {"measurement": "viability, T/C", "setting": "second compound 0.0316 µM, first compound 1 µM", "result": 1.95, "unit": "%"},
      {"measurement": "viability, T/C", "setting": "second compound 0.0316 µM, first compound 3.16 µM", "result": 1.57, "unit": "%"},
      {"measurement": "viability, T/C", "setting": "second compound 0.0316 µM, first compound 10 µM", "result": 0.92, "unit": "%"},
      {"measurement": "viability, T/C", "setting": "second compound 0.1 µM, first compound 0.0316 µM", "result": 5.2, "unit": "%"},
      {"measurement": "viability, T/C", "setting": "second compound 0.1 µM, first compound 0.1 µM", "result": 3.07, "unit": "%"},
      {"measurement": "viability, T/C", "setting": "second compound 0.1 µM, first compound 0.316 µM", "result": 1.59, "unit": "%"},
      {"measurement": "viability, T/C", "setting": "second compound 0.1 µM, first compound 1 µM", "result": 0.92, "unit": "%"},
      {"measurement": "viability, T/C", "setting": "second compound 0.1 µM, first compound 3.16 µM", "result": 0.97, "unit": "%"},
      {"measurement": "viability, T/C", "setting": "second compound 0.1 µM, first compound 10 µM", "result": 0.63, "unit": "%"},
      {"measurement": "viability, T/C", "setting": "second compound 0.316 µM, first compound 0.0316 µM", "result": 2.68, "unit": "%"},
      {"measurement": "viability, T/C", "setting": "second compound 0.316 µM, first compound 0.1 µM", "result": 1.49, "unit": "%"},
      {"measurement": "viability, T/C", "setting": "second compound 0.316 µM, first compound 0.316 µM", "result": 0.84, "unit": "%"},
      {"measurement": "viability, T/C", "setting": "second compound 0.316 µM, first compound 1 µM", "result": 0.98, "unit": "%"},
      {"measurement": "viability, T/C", "setting": "second compound 0.316 µM, first compound 3.16 µM", "result": 0.78, "unit": "%"},
      {"measurement": "viability, T/C", "setting": "second compound 0.316 µM, first compound 10 µM", "result": 0.67, "unit": "%"},
      {"measurement": "viability, T/C", "setting": "second compound 1 µM, first compound 0.0316 µM", "result": 1.74, "unit": "%"},
      {"measurement": "viability, T/C", "setting": "second compound 1 µM, first compound 0.1 µM", "result": 1.54, "unit": "%"},
      {"measurement": "viability, T/C", "setting": "second compound 1 µM, first compound 0.316 µM", "result": 1.31, "unit": "%"},
      {"measurement": "viability, T/C", "setting": "second compound 1 µM, first compound 1 µM", "result": 0.99, "unit": "%"},
      {"measurement": "viability, T/C", "setting": "second compound 1 µM, first compound 3.16 µM", "result": 0.81, "unit": "%"},
      {"measurement": "viability, T/C", "setting": "second compound 1 µM, first compound 10 µM", "result": 0.51, "unit": "%"},
      {"measurement": "viability, T/C", "setting": "second compound 3.16 µM, first compound 0.0316 µM", "result": 1.99, "unit": "%"},
      {"measurement": "viability, T/C", "setting": "second compound 3.16 µM, first compound 0.1 µM", "result": 1.51, "unit": "%"},
      {"measurement": "viability, T/C", "setting": "second compound 3.16 µM, first compound 0.316 µM", "result": 1.34, "unit": "%"},
      {"measurement": "viability, T/C", "setting": "second compound 3.16 µM, first compound 1 µM", "result": 0.77, "unit": "%"},
      {"measurement": "viability, T/C", "setting": "second compound 3.16 µM, first compound 3.16 µM", "result": 0.8, "unit": "%"},
      {"measurement": "viability, T/C", "setting": "second compound 3.16 µM, first compound 10 µM", "result": 0.33, "unit": "%"},
      {"measurement": "viability, T/C", "setting": "second compound 10 µM, first compound 0.0316 µM", "result": 1.85, "unit": "%"},
      {"measurement": "viability, T/C", "setting": "second compound 10 µM, first compound 0.1 µM", "result": 0.91, "unit": "%"},
      {"measurement": "viability, T/C", "setting": "second compound 10 µM, first compound 0.316 µM", "result": 0.69, "unit": "%"},
      {"measurement": "viability, T/C", "setting": "second compound 10 µM, first compound 1 µM", "result": 0.44, "unit": "%"},
      {"measurement": "viability, T/C", "setting": "second compound 10 µM, first compound 3.16 µM", "result": 0.38, "unit": "%"},
      {"measurement": "viability, T/C", "setting": "second compound 10 µM, first compound 10 µM", "result": 0.14, "unit": "%"}
    ]},
    {"smiles": "Cc1nc(N2CCC3(CC2)COC(C)C3N)c(CO)nc1Sc1ccnc(N)c1Cl", "note": "(centres undefined) + CCn1c(-c2cccnc2C(C)OC)c2c3cc(ccc31)N1CCOC(CC(NC(=O)C(C(C)C)N(C)C(=O)C3(F)CCN(C(=O)C#CC(C)(C)N(C)C)CC3)C(=O)N3CCCC(N3)C(=O)OCC(C)(C)C2)C1", "values": [
      {"measurement": "IC50", "setting": "second compound 0.000949 µM", "result": "> 10", "unit": "µM"},
      {"measurement": "IC50", "setting": "second compound 0.003 µM", "result": "> 10", "unit": "µM"},
      {"measurement": "IC50", "setting": "second compound 0.00949 µM", "result": "> 10", "unit": "µM"},
      {"measurement": "IC50", "setting": "second compound 0.03 µM", "result": "> 10", "unit": "µM"},
      {"measurement": "IC50", "setting": "second compound 0.0949 µM", "result": "> 10", "unit": "µM"},
      {"measurement": "IC50", "setting": "second compound 0.3 µM", "result": "> 10", "unit": "µM"},
      {"measurement": "viability, T/C", "setting": "second compound 0.000949 µM, first compound 0.0316 µM", "result": 91.7, "unit": "%"},
      {"measurement": "viability, T/C", "setting": "second compound 0.000949 µM, first compound 0.1 µM", "result": 84.8, "unit": "%"},
      {"measurement": "viability, T/C", "setting": "second compound 0.000949 µM, first compound 0.316 µM", "result": 78.1, "unit": "%"},
      {"measurement": "viability, T/C", "setting": "second compound 0.000949 µM, first compound 1 µM", "result": 83.8, "unit": "%"},
      {"measurement": "viability, T/C", "setting": "second compound 0.000949 µM, first compound 3.16 µM", "result": 79.5, "unit": "%"},
      {"measurement": "viability, T/C", "setting": "second compound 0.000949 µM, first compound 10 µM", "result": 78.4, "unit": "%"},
      {"measurement": "viability, T/C", "setting": "second compound 0.003 µM, first compound 0.0316 µM", "result": 95, "unit": "%"},
      {"measurement": "viability, T/C", "setting": "second compound 0.003 µM, first compound 0.1 µM", "result": 97.7, "unit": "%"},
      {"measurement": "viability, T/C", "setting": "second compound 0.003 µM, first compound 0.316 µM", "result": 95, "unit": "%"},
      {"measurement": "viability, T/C", "setting": "second compound 0.003 µM, first compound 1 µM", "result": 84.7, "unit": "%"},
      {"measurement": "viability, T/C", "setting": "second compound 0.003 µM, first compound 3.16 µM", "result": 87.7, "unit": "%"},
      {"measurement": "viability, T/C", "setting": "second compound 0.003 µM, first compound 10 µM", "result": 72.6, "unit": "%"},
      {"measurement": "viability, T/C", "setting": "second compound 0.00949 µM, first compound 0.0316 µM", "result": 103, "unit": "%"},
      {"measurement": "viability, T/C", "setting": "second compound 0.00949 µM, first compound 0.1 µM", "result": 74.7, "unit": "%"},
      {"measurement": "viability, T/C", "setting": "second compound 0.00949 µM, first compound 0.316 µM", "result": 74.8, "unit": "%"},
      {"measurement": "viability, T/C", "setting": "second compound 0.00949 µM, first compound 1 µM", "result": 75, "unit": "%"},
      {"measurement": "viability, T/C", "setting": "second compound 0.00949 µM, first compound 3.16 µM", "result": 90, "unit": "%"},
      {"measurement": "viability, T/C", "setting": "second compound 0.00949 µM, first compound 10 µM", "result": 79, "unit": "%"},
      {"measurement": "viability, T/C", "setting": "second compound 0.03 µM, first compound 0.0316 µM", "result": 86.2, "unit": "%"},
      {"measurement": "viability, T/C", "setting": "second compound 0.03 µM, first compound 0.1 µM", "result": 87.3, "unit": "%"},
      {"measurement": "viability, T/C", "setting": "second compound 0.03 µM, first compound 0.316 µM", "result": 91, "unit": "%"},
      {"measurement": "viability, T/C", "setting": "second compound 0.03 µM, first compound 1 µM", "result": 79, "unit": "%"},
      {"measurement": "viability, T/C", "setting": "second compound 0.03 µM, first compound 3.16 µM", "result": 74.4, "unit": "%"},
      {"measurement": "viability, T/C", "setting": "second compound 0.03 µM, first compound 10 µM", "result": 69, "unit": "%"},
      {"measurement": "viability, T/C", "setting": "second compound 0.0949 µM, first compound 0.0316 µM", "result": 82.3, "unit": "%"},
      {"measurement": "viability, T/C", "setting": "second compound 0.0949 µM, first compound 0.1 µM", "result": 84.8, "unit": "%"},
      {"measurement": "viability, T/C", "setting": "second compound 0.0949 µM, first compound 0.316 µM", "result": 70.1, "unit": "%"},
      {"measurement": "viability, T/C", "setting": "second compound 0.0949 µM, first compound 1 µM", "result": 63.3, "unit": "%"},
      {"measurement": "viability, T/C", "setting": "second compound 0.0949 µM, first compound 3.16 µM", "result": 77.9, "unit": "%"},
      {"measurement": "viability, T/C", "setting": "second compound 0.0949 µM, first compound 10 µM", "result": 71.6, "unit": "%"},
      {"measurement": "viability, T/C", "setting": "second compound 0.3 µM, first compound 0.0316 µM", "result": 77.2, "unit": "%"},
      {"measurement": "viability, T/C", "setting": "second compound 0.3 µM, first compound 0.1 µM", "result": 72, "unit": "%"},
      {"measurement": "viability, T/C", "setting": "second compound 0.3 µM, first compound 0.316 µM", "result": 71, "unit": "%"},
      {"measurement": "viability, T/C", "setting": "second compound 0.3 µM, first compound 1 µM", "result": 70.9, "unit": "%"},
      {"measurement": "viability, T/C", "setting": "second compound 0.3 µM, first compound 3.16 µM", "result": 66.8, "unit": "%"},
      {"measurement": "viability, T/C", "setting": "second compound 0.3 µM, first compound 10 µM", "result": 61, "unit": "%"}
    ]}
  ]
}
